According to PubChem BioAssay (NCI):
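Interpolation was linear, between the two tested concentrations surrounding the appropriate level; five concentrations were tested over 48 hours in 96-well plates. At the GI50, growth is halved. The concentration for full growth arrest is given as TGI.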

Columns and labels:
Test in all cases: inhibition of tumour cell growth, NCI panel, 48 h
[1] = system: U251 CNS
[2] = system: K-562 leukemia
[3] = system: SNB-75 CNS
[4] = system: OVCAR-5 ovarian
[5] = system: HCC-2998 colon
[6] = system: A498 renal
[7] = system: NCI-H460 lung
[8] = system: MDA-MB-231 breast
[9] = system: SN12C renal
[10] = system: SR leukemia

SMILES	GI50 [1]	TGI [1]	GI50 [2]	TGI [2]	GI50 [3]	TGI [3]	GI50 [4]	TGI [4]	GI50 [5]	TGI [5]	GI50 [6]	TGI [6]	GI50 [7]	TGI [7]	GI50 [8]	TGI [8]	GI50 [9]	TGI [9]	GI50 [10]	TGI [10]
O=C1NC(=O)C(c2ccccc2Cl)=C1Nc1cccc(O)c1	9.32 µM	> 25 µM	1.32 µM	> 25 µM	6.76 µM	> 20.2 µM	> 20.5 µM	> 25 µM	> 25 µM	> 25 µM	6.49 µM	> 25 µM	7.12 µM	> 25 µM	> 25 µM	> 25 µM	> 19.4 µM	> 25 µM	1.97 µM	> 25 µM
Cc1ccc(S(=O)(=O)NCCN2c3nc4ccccc4cc3Sc3cc4ccccc4nc32)cc1	4.93 µM	> 89.9 µM	> 100 µM	> 100 µM	1.54 µM	7.84 µM	> 100 µM	> 100 µM	> 100 µM	> 100 µM	24.4 µM	> 84.9 µM	> 100 µM	> 100 µM	4.61 µM	> 100 µM	> 100 µM	> 100 µM	> 100 µM	> 100 µM
CC1(C)C(=O)/C(=C\c2ccco2)C[C@]2(C)[C@H]3CC=C4[C@@H]5C[C@](C)(C(=O)O)CC[C@]5(C)CC[C@@]4(C)[C@]3(C)CC[C@@H]12	7.92 µM	24.8 µM	5.17 µM	93 µM	24.6 µM	> 100 µM	15.6 µM	32.2 µM	11 µM	24.3 µM	10.3 µM	22.4 µM	5.45 µM	20.9 µM	14.1 µM	31.6 µM	7.64 µM	26 µM	9.85 µM	> 100 µM
O=C(N/N=C/c1ccc(F)cc1)c1[nH]c2ccc(I)cc2c1-c1ccccc1	0.484 µM	> 37.9 µM	0.325 µM	–	0.327 µM	39.3 µM	3.49 µM	> 100 µM	0.888 µM	12.5 µM	0.409 µM	–	0.399 µM	5.04 µM	1.34 µM	6.82 µM	1.63 µM	> 100 µM	0.297 µM	3.37 µM
